Measured values from patent US20230293530A1, “AGENTS FOR SENSITIZING SOLID TUMORS TO TREATMENT” (Yeda Research and Development Co. Ltd., priority 2020, published 2023).

Tested on: LMP-7 immunoproteasome
Test: Western blot for LMP-7 immunoproteasome in 4T1 cells
Type: cell-based, murine
Conditions: 300 µM mizoribine, 24 hours
Text: C) ASS1 mRNA expression levels and NDNO scores are associated with non-response to anti-PD1 therapy in non-small cell lung cancer (NSCLC) (7 responders and 14 nonresponders). D) Proteomic-based NDNO scores associate with lower hydrophobicity of peptide repertoire (Wilcoxon ranksum P<0.05) in a (CPTAC3) lung adenocarcinoma cohort. NDNO scores were used to determine the top tertile (red; n=36) and bottom tertile (blue; n=36); Proteomic NDNO scores denote the ratio of NNDO scores of the tumor vs the matched normal sample (Methods). Hydrophobicity scores were determined by R library Peptides using the metric from Janin et al^2, where the hydrophobicity of each sample’s peptide repertoire denotes the mean hydrophobicity of all its peptides (Methods). E) 4T1 breast cancer cells were treated with 300 µM mizoribine for 24 hours and analysed by western for LMP-7 immunoproteasome (Left panel). Quantification of the western is shown on the right panel. […] Tumor size was calliper-measured on the designated days (upper panel) and at sacrifice on day 14 (lower panel, p = 0.0476 using student’s t-test). […] Human IFNγ was measured using ELISA in wells containing cultured CD8+T-cells and PDX explants from two patients (Pat#1, LEP 19 and Pat#2, LEP 20) with metastatic NSCLC on responsive to anti-PD1. […]

## NC(=O)c1ncn([C@@H]2O[C@H](CO)[C@@H](O)[C@H]2O)c1O [Mizoribine, mizoribine]
  immunoproteasome LMP-7 expression: higher immunoproteasome LMP-7 expression
